Measured values as given in the NIST ThermoML archive (doi:10.1016/j.tca.2014.07.022).

Test: xn = mol fraction of the nth substance listed
Conditions: 100 kPa, Liquid; for mass density: Vibrating tube method; for viscosity: Concentric cylinders viscometry

CC(=O)CC(C)C [4-methylpentan-2-one] + CCC(C)O
Conditions | mass density, 308.15 K [kg/m3] | mass density, 313.15 K [kg/m3] | mass density, 318.15 K [kg/m3] | mass density, 323.15 K [kg/m3] | viscosity, 313.15 K [mPa·s] | viscosity, 318.15 K [mPa·s] | viscosity, 323.15 K [mPa·s]
x1 = 0.1002 | 792 | 787.6 | 783 | 778.3 | 1.341 | 1.181 | 1.035
x1 = 0.1905 | 790.5 | 786 | 781.3 | 776.6 | 1.1 | 0.984 | 0.88
x1 = 0.2801 | 789.3 | 784.7 | 780 | 775.3 | 0.94 | 0.847 | 0.772
x1 = 0.4054 | 788 | 783.4 | 778.6 | 773.8 | 0.787 | 0.715 | 0.662
x1 = 0.4891 | 787.4 | 782.7 | 777.9 | 773.2 | 0.708 | 0.649 | 0.603
x1 = 0.6123 | 786.7 | 782.1 | 777.3 | 772.6 | 0.621 | 0.575 | 0.535
x1 = 0.6942 | 786.5 | 781.9 | 777.1 | 772.4 | 0.58 | 0.535 | 0.501
x1 = 0.779 | 786.5 | 781.8 | 777 | 772.3 | 0.544 | 0.505 | 0.471
x1 = 0.8747 | 786.5 | 781.9 | 777.1 | 772.5 | 0.505 | 0.477 | 0.449
x1 = 0.9522 | 786.7 | 782.1 | 777.4 | 772.7 | 0.485 | 0.458 | 0.434
x1 = 1 | 786.9 | 782.3 | 777.6 | 773 | 0.463 | 0.437 | 0.41
